Source: patent EP0539470B1, “NEUROMUSCULAR BLOCKING AGENTS” (THE WELLCOME FOUNDATION LIMITED, priority 1990, dated 1992)

Columns and labels:
Format in all cases: in vivo
[1] = tested on: cervical sympathetic nerve; assay: Sympathetic blockade in anaesthetized cats (cervical sympathetic nerve stimulation, nictitating membrane contraction); conditions: i.v., ED₂₅ for inhibition of sympathetic nerve stimulation relative to neuromuscular ED₉₅
Protocol: (§1) Mongrel male cats (Southeastern Laboratories Animal Farm), weighing 2.2-4.25kg, were anaesthetized with a mixture of pentobarbital sodium, 7mg/kg i.p., and alpha-chloralose, 80 mg/kg i.p. Adequate levels of anaesthesia were maintained with supplemental doses of alpha-chloralose administered intravenously as needed. The trachea was cannulated and the animals were ventilated with 20 ml/kg of room air via a Harvard Apparatus respiration pump adjusted to deliver 20 strokes/minute. Arterial blood pressure was measured via a cannula in the right femoral artery connected to a Statham P23 transducer. Heart rate was determined from the ECG using a Grass tachograph. […] Isometric […] of the nictitating membrane were recorded during a resting tension of 5 grams with a Grass FT.03 force displacement transducer and a Grass polygraph. […] Twitch tension in the anterior tibialis was recorded during a resting tension of 50 grams. […] Esophageal temperature was monitored with a Yellow Springs thermistor probe and core temperature maintained between 37° and 38°C with radiant heat. […] At the end of the experiments, cats were euthanatized with intravenously administered saturated KCl or pentobarbital sodium. b) Results The ED₉₅ value for neuromuscular blocking potency was calculated from dose-response curves. […]

[2] = tested on: anterior tibialis; assay: Neuromuscular blocking potency in anaesthetized cats (peroneal nerve stimulation, anterior tibialis twitch tension); conditions: intravenous (femoral vein), calculated from dose-response curves, mg/kg as the free base, based on the weight of the atracurium cation
Protocol: as §1

[3] = tested on: vagus; assay: Parasympathetic blockade in anaesthetized cats (inhibition of the response to vagus stimulation); conditions: i.v., ED₅₀ for inhibition of parasympathetic (vagus) nerve stimulation relative to neuromuscular ED₉₅
Protocol: as §1

COc1ccc(CC2c3cc(OC)c(OC)cc3CC[N+]2(C)CCC(=O)OCCCCCOC(=O)CC[N+]2(C)CCc3cc(OC)c(OC)cc3C2Cc2ccc(OC)c(OC)c2)cc1OC (stereo not drawn) [Atracurium besylate, 2,2'-(3,11-dioxo-4,10-dioxatridecylene)-bis-(1,2,3,4-tetrahydro-6,7-dimethoxy-2-methyl-1-veratrylisoquinolinium dibesylate]
RATIO 25% SYMPATHETIC INHIBITION vs. ED₉₅ [1]: 34
CALC. * ED₉₅ [2]: 0.092 ± 0.010 mg/kg
RATIO 50% VAGUS INHIBITION vs. ED₉₅ [3]: 17

COc1ccc(C[C@@H]2c3cc(OC)c(OC)cc3CC[N+]2(C)CCC(=O)OCCCCCOC(=O)CC[N+]2(C)CCc3cc(OC)c(OC)cc3[C@H]2Cc2ccc(OC)c(OC)c2)cc1OC.CS(=O)(=O)[O-].CS(=O)(=O)[O-] (relative stereo) [Compound A, 1R-cis,1'R-cis-2,2'-(3,11-Dioxo-4,10-dioxatridecamethylene)-bis-(1,2,3,4-tetrahydro-6,7-dimethoxy-2-methyl-1-veratrylisoquinolinium)methanesulphonate]
RATIO 25% SYMPATHETIC INHIBITION vs. ED₉₅ [1]: 60
CALC. * ED₉₅ [2]: 0.062 ± 0.008 mg/kg
RATIO 50% VAGUS INHIBITION vs. ED₉₅ [3]: 27
